One experiment deals with 5-HT6 (Homo sapiens, UniProt P50406). The experiment in a line: G protein dissociation and cAMP accumulation second messenger assays. Also noted: expressed in transfected cells; host or cells: HEK293T. Format: cell-based. In general terms: Changes in cAMP serve as a functional read-out for many G protein-coupled receptors.
The next experiment concerns the target T1, 5-HT5A receptor (Homo sapiens, UniProt P47898).
T1 construct: expressed in transfected cells; host or cells: HEK293T
The experiment in a line: G protein dissociation assay. Format: cell-based.

The target in the next experiment is T2, D4 dopamine receptor (Homo sapiens, UniProt P21917).
T2 sequence (P21917 1-419): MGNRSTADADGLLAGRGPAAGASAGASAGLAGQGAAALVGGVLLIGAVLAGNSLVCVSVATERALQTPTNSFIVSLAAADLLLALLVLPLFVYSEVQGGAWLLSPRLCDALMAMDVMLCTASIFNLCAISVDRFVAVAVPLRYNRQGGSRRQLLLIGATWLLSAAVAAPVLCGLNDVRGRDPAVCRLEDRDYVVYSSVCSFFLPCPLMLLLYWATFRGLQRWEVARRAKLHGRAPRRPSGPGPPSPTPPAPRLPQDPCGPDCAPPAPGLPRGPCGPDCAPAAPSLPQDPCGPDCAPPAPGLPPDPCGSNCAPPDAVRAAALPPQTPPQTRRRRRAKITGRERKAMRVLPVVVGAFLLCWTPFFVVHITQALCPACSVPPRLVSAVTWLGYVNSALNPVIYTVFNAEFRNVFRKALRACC
Nature of the experiment: BRET-based G protein dissociation assay. The format is cell-based. In general terms: BRET reads energy transfer from a luciferase to a nearby fluorophore.

The next experiment concerns the target T3, 5-HT2B receptor (Homo sapiens, UniProt P41595).
T3 construct: expressed in transfected cells; host or cells: HEK293T; Flp-In 293 T-Rex (calcium flux)
The experiment in a line: 5-HT2B Gq dissociation, β-arrestin2 recruitment and Gq-mediated calcium flux in HEK293T cells. The format is cell-based. The method, then:
The activity of the “E559 polymorph” at the 5-HT2B receptor was further assessed by 5-HT2B-mediated Gq dissociation (FIG. 14A), 5-HT2B-mediated 0-arrestin2 recruitment (FIG. 14B) and 5-HT2B Gq-mediated calcium flux assessments (FIG. 14C) using bioluminescence resonance energy transfer (BRET) assay in HEK293T cells FIG. 14A to C, 5-HT refers to serotonin). […] In 5-HT2B antagonist assays, the “E559 polymorph” antagonism was measured by its ability to block 5-HT2B receptor activation by 5-HT.
(In general: Recruitment of arrestin is a read-out of receptor activation apart from second messengers.)

For experiment [1], the target named is H4 histaminergic receptor (Homo sapiens, UniProt Q9H3N8). The experiment in a line: BRET-based G protein dissociation assay. The format is cell-based.
Experiment [2] deals with CHRM2 (M2 muscarinic receptor) (Homo sapiens, UniProt P08172). Nature of the experiment: BRET-based G protein dissociation assay. Format: cell-based.
The target in the next experiment is D5 dopamine receptor (Homo sapiens, UniProt P21918). The experiment in a line: BRET-based G protein dissociation assay. The format is cell-based.
In experiment [3] the target is T4, 5-HT2A receptor (Homo sapiens, UniProt P28223). Nature of the experiment: 5-HT2A receptor internalization, NanoBit HiBit-fused 5-HT2A in HEK293T cells. The format is cell-based. More on the design: expressed in transfected cells; host or cells: HEK293T. The method, then: To assess the ability of the “E559 polymorph” to induce β-arrestin-mediated 5-HT2A receptor internalization in vitro, the loss of surface expression of 5-HT2A receptor was measured using a NanoBit N-terminal HiBit-fused 5-HT2A construct cloned in HEK293T cells (1:15 ratio 5-HT2A: β-arrestin2). In brief, cells were treated with serial dilution of test compounds for 1 hour or a specified time point.

Experiment [4] has as its target T4, 5-HT2A receptor.
Experiment [5] deals with T5, CHRM4 (M4 muscarinic receptor) (Homo sapiens, UniProt P08173).
T5 sequence (P08173 1-479): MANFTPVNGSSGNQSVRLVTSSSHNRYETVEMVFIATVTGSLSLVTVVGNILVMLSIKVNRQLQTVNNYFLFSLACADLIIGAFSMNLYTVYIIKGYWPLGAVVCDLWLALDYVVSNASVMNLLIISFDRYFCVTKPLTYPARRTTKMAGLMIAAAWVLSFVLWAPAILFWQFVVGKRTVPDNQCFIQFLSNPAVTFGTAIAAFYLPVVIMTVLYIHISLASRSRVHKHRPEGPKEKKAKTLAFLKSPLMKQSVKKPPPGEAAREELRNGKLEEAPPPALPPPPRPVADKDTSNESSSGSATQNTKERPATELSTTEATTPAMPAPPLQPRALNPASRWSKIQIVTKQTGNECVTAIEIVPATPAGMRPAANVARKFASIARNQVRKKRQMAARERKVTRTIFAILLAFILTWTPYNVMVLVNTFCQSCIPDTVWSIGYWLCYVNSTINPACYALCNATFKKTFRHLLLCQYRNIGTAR
The experiment in a line: BRET-based G protein dissociation assay. The format is cell-based.

The target in the next experiment is T6, 5-HT4 receptor (Homo sapiens, UniProt Q13639).
T6 construct: expressed in transfected cells; host or cells: HEK293T
The experiment in a line: G protein dissociation assay. Format: cell-based. The note with it: FIG. 15.

The next experiment has as its target T7, 5-HT7 receptor (Homo sapiens, UniProt P34969).
T7 construct: expressed in transfected cells; host or cells: HEK293T
Nature of the experiment: G protein dissociation and cAMP accumulation second messenger assays. Format: cell-based.

Another experiment deals with D2 dopamine receptor (Homo sapiens, UniProt P14416). The experiment in a line: BRET-based G protein dissociation assay. Format: cell-based.
For experiment [6], the target named is CHRM5 (M5 muscarinic receptor) (Homo sapiens, UniProt P08912). The experiment in a line: BRET-based G protein dissociation assay. Format: cell-based.
Experiment [7] deals with H2 histaminergic receptor (Homo sapiens, UniProt P25021). Nature of the experiment: BRET-based G protein dissociation assay. Format: cell-based.
In the next experiment the test system is male C57BL/6J mice. The experiment in a line: Head-twitch response (HTR) mouse model. Format: in vivo. The procedure:
The HTR mouse model is widely used as a proxy behavioral assay for hallucinogenic activity in humans [Halbertstad et al., Neuropharmacology, 2020, V167: 107933; Halberstadt et. al., Psychopharmacology (Berl). 2013, 227(4):727-39].
The magnet implants mounting and magnetometer assessments were conducted as described previously (Halberstadt et al., Psychopharmacology (Berl). 2013 227(4): 727-739). Data are represented as group means±standard deviation for the entire 60 minutes test session (FIG. 10A) and individual data points per 2 minutes blocks (FIG. 10B). Asterisks indicate statistical significances compared to the control (0 mg/kg).

Setting [8] is: percentage of the reference ligand-induced maximal response, read-out: Emax.

“Also recorded” adds a separate entry of the source. Read-outs that look alike come from different tables or passages of the source. A value given as a limit tells only on which side of the number the result lay.

Sequence of D5 dopamine receptor (P21918 whole entry, the tested form may be a part): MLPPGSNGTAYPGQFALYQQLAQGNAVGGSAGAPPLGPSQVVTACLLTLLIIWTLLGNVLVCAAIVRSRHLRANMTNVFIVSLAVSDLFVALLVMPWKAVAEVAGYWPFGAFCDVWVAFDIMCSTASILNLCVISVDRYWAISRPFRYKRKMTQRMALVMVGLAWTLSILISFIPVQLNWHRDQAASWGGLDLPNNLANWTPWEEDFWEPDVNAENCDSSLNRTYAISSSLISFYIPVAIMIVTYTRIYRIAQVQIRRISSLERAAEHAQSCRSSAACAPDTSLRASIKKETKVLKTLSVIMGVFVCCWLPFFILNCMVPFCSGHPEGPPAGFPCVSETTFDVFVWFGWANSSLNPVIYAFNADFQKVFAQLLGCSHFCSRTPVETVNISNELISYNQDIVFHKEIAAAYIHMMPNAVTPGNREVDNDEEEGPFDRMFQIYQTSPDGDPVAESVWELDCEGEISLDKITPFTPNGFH
T7 sequence (P34969 1-445 isoform P34969-2): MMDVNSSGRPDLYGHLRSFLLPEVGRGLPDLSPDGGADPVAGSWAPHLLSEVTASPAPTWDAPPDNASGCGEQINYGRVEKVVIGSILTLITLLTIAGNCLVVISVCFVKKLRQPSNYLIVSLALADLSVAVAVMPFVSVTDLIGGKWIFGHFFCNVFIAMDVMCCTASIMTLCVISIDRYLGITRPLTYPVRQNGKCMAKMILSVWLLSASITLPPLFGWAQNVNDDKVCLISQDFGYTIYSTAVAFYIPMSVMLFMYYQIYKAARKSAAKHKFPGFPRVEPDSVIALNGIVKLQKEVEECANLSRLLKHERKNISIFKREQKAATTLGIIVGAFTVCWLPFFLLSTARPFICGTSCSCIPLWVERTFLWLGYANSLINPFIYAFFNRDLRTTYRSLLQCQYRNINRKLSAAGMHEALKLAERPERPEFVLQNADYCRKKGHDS
Sequence of H2 histaminergic receptor (P25021 whole entry): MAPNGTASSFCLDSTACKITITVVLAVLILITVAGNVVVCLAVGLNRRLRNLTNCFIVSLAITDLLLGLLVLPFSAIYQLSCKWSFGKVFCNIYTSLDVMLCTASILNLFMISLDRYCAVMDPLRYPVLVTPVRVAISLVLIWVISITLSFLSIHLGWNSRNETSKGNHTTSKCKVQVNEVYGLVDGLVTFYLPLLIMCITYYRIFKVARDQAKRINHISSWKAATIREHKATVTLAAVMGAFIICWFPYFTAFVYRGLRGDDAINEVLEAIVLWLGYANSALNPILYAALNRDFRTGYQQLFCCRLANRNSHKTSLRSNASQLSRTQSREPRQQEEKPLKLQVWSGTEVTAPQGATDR
Sequence of D2 dopamine receptor (P14416 whole entry): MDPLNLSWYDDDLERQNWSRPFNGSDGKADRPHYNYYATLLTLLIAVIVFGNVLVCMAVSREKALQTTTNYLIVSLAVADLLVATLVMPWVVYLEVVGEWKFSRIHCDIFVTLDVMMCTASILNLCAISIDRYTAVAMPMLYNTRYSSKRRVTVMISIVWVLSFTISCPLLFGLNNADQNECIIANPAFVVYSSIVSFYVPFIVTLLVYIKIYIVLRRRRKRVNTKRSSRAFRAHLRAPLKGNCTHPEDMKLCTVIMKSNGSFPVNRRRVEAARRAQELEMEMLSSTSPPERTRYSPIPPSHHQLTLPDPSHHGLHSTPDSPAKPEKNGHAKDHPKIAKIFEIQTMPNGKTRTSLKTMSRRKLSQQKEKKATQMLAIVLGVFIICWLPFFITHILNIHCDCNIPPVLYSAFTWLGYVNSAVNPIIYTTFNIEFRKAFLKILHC
Sequence of H4 histaminergic receptor (Q9H3N8 whole entry): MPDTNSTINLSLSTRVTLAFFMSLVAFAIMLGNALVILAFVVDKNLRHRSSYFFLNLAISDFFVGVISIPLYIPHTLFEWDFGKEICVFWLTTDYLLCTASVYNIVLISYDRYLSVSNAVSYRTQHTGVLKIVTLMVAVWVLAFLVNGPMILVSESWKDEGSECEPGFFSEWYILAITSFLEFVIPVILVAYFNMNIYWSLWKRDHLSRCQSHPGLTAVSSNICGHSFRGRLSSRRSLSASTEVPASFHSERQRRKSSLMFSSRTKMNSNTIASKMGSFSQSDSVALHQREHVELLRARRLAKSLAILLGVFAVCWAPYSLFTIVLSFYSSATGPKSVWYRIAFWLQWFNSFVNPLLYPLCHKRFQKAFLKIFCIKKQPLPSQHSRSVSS
T4 sequence (P28223 whole entry, the tested form may be a part): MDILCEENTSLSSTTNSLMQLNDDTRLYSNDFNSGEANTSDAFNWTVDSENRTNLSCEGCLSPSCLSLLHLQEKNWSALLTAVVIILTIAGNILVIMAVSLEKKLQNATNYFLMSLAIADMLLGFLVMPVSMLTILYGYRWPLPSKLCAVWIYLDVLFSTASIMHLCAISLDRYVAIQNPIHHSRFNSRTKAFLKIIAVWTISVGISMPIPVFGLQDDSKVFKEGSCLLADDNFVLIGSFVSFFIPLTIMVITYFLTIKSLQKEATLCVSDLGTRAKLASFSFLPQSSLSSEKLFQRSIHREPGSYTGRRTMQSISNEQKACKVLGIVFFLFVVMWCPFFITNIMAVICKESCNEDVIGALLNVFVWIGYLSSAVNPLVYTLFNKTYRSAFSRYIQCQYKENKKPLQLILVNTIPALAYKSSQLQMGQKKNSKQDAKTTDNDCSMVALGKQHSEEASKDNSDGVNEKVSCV
T3 sequence (P41595 whole entry): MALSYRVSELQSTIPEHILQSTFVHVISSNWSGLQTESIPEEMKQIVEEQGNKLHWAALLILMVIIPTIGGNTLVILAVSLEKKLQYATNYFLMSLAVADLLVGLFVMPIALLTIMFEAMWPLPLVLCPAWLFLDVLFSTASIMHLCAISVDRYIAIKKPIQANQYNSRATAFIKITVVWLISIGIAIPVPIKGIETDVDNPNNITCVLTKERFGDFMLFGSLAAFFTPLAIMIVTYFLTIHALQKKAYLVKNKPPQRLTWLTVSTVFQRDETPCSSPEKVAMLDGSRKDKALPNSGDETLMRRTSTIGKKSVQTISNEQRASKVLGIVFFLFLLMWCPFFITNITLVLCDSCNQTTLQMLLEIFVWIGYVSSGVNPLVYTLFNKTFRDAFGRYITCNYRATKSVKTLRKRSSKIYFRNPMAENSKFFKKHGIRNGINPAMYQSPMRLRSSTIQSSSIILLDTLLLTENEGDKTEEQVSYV
T1 sequence (P47898 whole entry): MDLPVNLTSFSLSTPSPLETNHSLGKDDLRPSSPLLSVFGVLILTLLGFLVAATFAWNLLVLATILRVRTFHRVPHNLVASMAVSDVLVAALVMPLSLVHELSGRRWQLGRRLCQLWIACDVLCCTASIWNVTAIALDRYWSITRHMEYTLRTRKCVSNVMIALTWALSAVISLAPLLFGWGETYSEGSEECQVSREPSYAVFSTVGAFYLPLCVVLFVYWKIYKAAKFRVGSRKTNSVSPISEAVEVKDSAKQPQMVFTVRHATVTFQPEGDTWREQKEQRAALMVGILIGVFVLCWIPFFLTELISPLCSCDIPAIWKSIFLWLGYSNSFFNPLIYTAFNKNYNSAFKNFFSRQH
Sequence of CHRM2 (M2 muscarinic receptor) (P08172 whole entry): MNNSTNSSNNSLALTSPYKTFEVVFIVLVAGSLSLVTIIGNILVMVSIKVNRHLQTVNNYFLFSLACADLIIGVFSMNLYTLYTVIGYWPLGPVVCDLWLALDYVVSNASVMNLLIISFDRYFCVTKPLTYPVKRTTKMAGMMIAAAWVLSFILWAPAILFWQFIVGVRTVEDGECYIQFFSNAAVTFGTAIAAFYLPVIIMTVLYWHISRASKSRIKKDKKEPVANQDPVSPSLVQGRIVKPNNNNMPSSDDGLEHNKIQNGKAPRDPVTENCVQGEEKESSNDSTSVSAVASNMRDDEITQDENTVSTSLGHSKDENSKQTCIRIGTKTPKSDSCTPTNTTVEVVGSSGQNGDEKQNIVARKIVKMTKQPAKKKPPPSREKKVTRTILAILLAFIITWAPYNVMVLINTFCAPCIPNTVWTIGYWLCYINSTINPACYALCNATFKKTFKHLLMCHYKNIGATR
T6 sequence (Q13639 whole entry): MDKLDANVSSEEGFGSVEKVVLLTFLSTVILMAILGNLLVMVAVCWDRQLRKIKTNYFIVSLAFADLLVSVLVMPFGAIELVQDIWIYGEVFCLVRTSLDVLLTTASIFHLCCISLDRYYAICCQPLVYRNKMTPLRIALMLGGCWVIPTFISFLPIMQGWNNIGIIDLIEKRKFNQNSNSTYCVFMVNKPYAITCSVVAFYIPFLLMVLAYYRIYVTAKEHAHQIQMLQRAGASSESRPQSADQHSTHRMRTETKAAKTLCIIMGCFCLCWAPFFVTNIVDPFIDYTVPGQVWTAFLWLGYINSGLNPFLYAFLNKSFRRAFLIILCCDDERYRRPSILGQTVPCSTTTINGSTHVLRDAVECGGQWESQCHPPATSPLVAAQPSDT
Sequence of CHRM5 (M5 muscarinic receptor) (P08912 whole entry): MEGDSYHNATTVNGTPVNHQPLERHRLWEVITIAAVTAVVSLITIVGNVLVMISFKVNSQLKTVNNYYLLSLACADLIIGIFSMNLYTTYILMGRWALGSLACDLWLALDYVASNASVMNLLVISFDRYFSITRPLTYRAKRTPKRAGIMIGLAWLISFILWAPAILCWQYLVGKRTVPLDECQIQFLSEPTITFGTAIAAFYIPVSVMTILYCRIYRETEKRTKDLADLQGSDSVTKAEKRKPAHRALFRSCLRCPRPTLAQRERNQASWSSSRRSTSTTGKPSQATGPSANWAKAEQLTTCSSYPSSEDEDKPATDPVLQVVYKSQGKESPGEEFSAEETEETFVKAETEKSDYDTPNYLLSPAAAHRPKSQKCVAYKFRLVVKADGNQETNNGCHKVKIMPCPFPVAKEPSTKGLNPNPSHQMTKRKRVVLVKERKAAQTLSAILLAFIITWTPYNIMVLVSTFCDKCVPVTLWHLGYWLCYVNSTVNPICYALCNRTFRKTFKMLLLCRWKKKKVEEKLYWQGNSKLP

Consider `CCN(CC)C(=O)[C@@H]1C=C2c3cccc4[nH]c(Br)c(c34)C[C@H]2N(C)C1` [E559, (5R, 8R)-2-Bromo-9,10-didehydro-N,N-diethyl-6-methylergoline-8-carboxamide hemi-D-tartrate], for which the “functional activity at 5-HT6” value at 5-HT6 (FIG. 15, FIG. 16A/B) is reported as “acts as a very potent partial agonist”. The “functional activity at 5-HT5A” value on 5-HT5A receptor (FIG. 15) is recorded as “antagonizes this receptor subtype”. Also, the half-maximal effective concentration (EC50) (as a rule, the concentration giving half of the maximal effect) on D4 dopamine receptor amounted to 1.22 nM; in experiment [2], 214 nM; on D5 dopamine receptor it was 3.75 nM; in [5] it was 0.04 nM; at D2 dopamine receptor it was 0.35 nM; in [6], 5.82 µM. The molecule further had an EC50 in [7] of 296 nM. Besides, the Emax (in general, the maximal effect, on the per cent scale that the assay sets) at D4 dopamine receptor stood at 67.3%; in experiment [1] it was 17.4%; on D5 dopamine receptor, 15.6%; in [5] it was 15.6%; at D2 dopamine receptor, 77.4%; in experiment [7], 28.8%. The “antagonism of 5-HT-mediated activation of 5-HT2B” value on 5-HT2B receptor (Gq dissociation, β-arrestin2 recruitment, calcium flux) is given as “antagonism was observed in blocking 5-HT-mediated activation of the 5-HT2B receptor in all three assays”. Besides, on 5-HT2B receptor (Gq dissociation, β-arrestin2 recruitment, calcium flux, listed as E559 polymorph), the “agonism at 5-HT2B” value is “does not show the agonism seen with LSD; also recorded: inactive as an agonist at the 5-HT2B receptor”. Besides, the values for the Kb (on D5 dopamine receptor; in experiment [7]) were 25.1 nM and 5.19 µM, respectively. For the same molecule, the “internalization of the 5-HT2A receptor (loss of surface expression)” value on 5-HT2A receptor [3] (single 1 hour treatment) is given as “only exhibits weak internalization of the 5-HT2A receptor”. The “β-Arrestin2 recruitment at the 5-HT2A receptor” value at 5-HT2A receptor [4] (percentage of the 5-HT-induced maximal response) is “weak recruiter of β-Arrestin2”. Further, the “functional activity at 5-HT4” value on 5-HT4 receptor was “lack potent agonist activity at 5-HT4 receptor”. In addition, the “functional activity at 5-HT7” value on 5-HT7 receptor (FIG. 15, FIG. 16A/B, listed as E559 polymorph) is “act as potent antagonist and inverse agonists; also recorded: exhibits significantly greater inverse agonism than LSD”. Moreover, in the experiment on male C57BL/6J mice (IP, E559 polymorph 0.1-10 mg/kg, LSD 0.1 mg/kg, 60 minutes), the “head-twitch response (HTR)” value was “negative in HTR at all doses tested; also recorded: did not induce HTR above baseline at any tested dose”.

Consider `CCN(CC)C(=O)[C@@H]1C=C2c3cccc4[nH]cc(c34)C[C@H]2N(C)C1` [LSD, lysergic acid diethylamide, reference compound], for which the “functional activity at 5-HT6” value at 5-HT6 is reported as “acts as a very potent partial agonist”. The “functional activity at 5-HT5A” value on 5-HT5A receptor was “acts as a partial agonist”. For the same molecule, the EC50 is 4.03 nM at D4 dopamine receptor (agonist mode, read-out: EC50); 0.09 nM in experiment [1] (agonist mode); greater than 10000 nM in [2] (agonist mode, read-out: EC50); 166 nM at D5 dopamine receptor (agonist mode, read-out: EC50); 454 nM in experiment [5] (agonist mode, read-out: EC50); 2.17 nM on D2 dopamine receptor. Also, the EC50 is greater than 10 µM in experiment [6] (agonist mode, read-out: EC50) and greater than 10000 nM in [7] (agonist mode, read-out: EC50). The Emax at D4 dopamine receptor (setting [8]) stood at 91.9%; in [1] (setting [8]), 15%; on D5 dopamine receptor (setting [8]), 70.7%; at D2 dopamine receptor, 86%; in [7] (setting [8]), 21.2%. Further, the “agonism at 5-HT2B” value at 5-HT2B receptor is listed as “shows potent agonism of the 5-HT2B receptor; also recorded: an agonist of 5-HT2B”. Also, at 5-HT2A receptor [3], the “internalization of the 5-HT2A receptor (loss of surface expression)” value is “potent internalization”. Besides, the “β-Arrestin2 recruitment at the 5-HT2A receptor” value at 5-HT2A receptor [4] is recorded as “strong recruiters of β-Arrestin2”. Further, the “functional activity at 5-HT4” value at 5-HT4 receptor is “lack potent agonist activity at 5-HT4 receptor”. Further, the “functional activity at 5-HT7” value at 5-HT7 receptor is “act as potent antagonist and inverse agonists”. In addition, the “head-twitch response (HTR)” value in the experiment on male C57BL/6J mice (mouse, in vivo) was “elicited a strong HTR”.

These data come from patent publication US12331051B2 (priority 2021, dated 2025).
